According to US20170232083A1, “METHODS OF DIAGNOSIS AND TREATMENT OF CELIAC DISEASE IN CHILDREN” (priority 2014, published 2017):

Test system: PBMC (polyclonal gluten-specific T cells) of paediatric and adult CD patients
Test: IFN-γ ELISpot of PBMC after 3 day oral wheat challenge (SFU, % of maximal peptide response, dominance scores, EC50; Examples 5-6)
Format: cell-based, human
Conditions: for Cross-reactive T cell response: following wheat challenge
[1] = subject I (3-5yrs/6-10yrs part)
[2] = subject J (3-5yrs/6-10yrs part)
[3] = subject K (3-5yrs/6-10yrs part)
[4] = subject V (3-5yrs/6-10yrs part)
[5] = subject W (3-5yrs/6-10yrs part)
[6] = subject Y (3-5yrs/6-10yrs part)
[7] = subject five (3-5yrs/6-10yrs part)
[8] = subject seven (3-5yrs/6-10yrs part)
[9] = subject six (3-5yrs/6-10yrs part)
[10] = subject ten (3-5yrs/6-10yrs part)
[11] = subject two (3-5yrs/6-10yrs part)

Sequence	Cross-reactive T cell response (subject A, 11-17yrs) [SFU]	Cross-reactive T cell response (subject D, 11-17yrs) [SFU]	Significant response as a percentage of maximal peptide SFU (subject E, 11-17yrs)	Cross-reactive T cell response (subject E, 11-17yrs) [SFU]	Significant response as a percentage of maximal peptide SFU (subject F, 11-17yrs)	Cross-reactive T cell response (subject F, 11-17yrs) [SFU]	Cross-reactive T cell response (subject G, 11-17yrs) [SFU]	Cross-reactive T cell response (subject H) [SFU]	Cross-reactive T cell response [1] [SFU]	Significant response as a percentage of maximal peptide SFU (subject J)	Cross-reactive T cell response [2] [SFU]	Significant response as a percentage of maximal peptide SFU (subject K)	Cross-reactive T cell response [3] [SFU]	Cross-reactive T cell response (subject P, 11-17yrs) [SFU]	Significant response as a percentage of maximal peptide SFU (subject Q, 11-17yrs)	Cross-reactive T cell response (subject Q, 11-17yrs) [SFU]	Significant response as a percentage of maximal peptide SFU (subject T, 11-17yrs)	Cross-reactive T cell response (subject T, 11-17yrs) [SFU]	Significant response as a percentage of maximal peptide SFU (subject U, 11-17yrs)	Cross-reactive T cell response (subject U, 11-17yrs) [SFU]	other results
QPFPQPEQELPLQ	4	7	′′ (21-40% = ′′)	46	′ (11-20% = ′)	31	1	5	6	′′ (21-40% = ′′)	57	′ (11-20% = ′)	13	17	′ (11-20% = ′)	14	′′ (21-40% = ′′)	36	′ (11-20% = ′)	12	Cross-reactive T cell response [4]: 7 SFU; Cross-reactive T cell response [5]: 0 SFU; Cross-reactive T cell response [6]: 0 SFU; Cross-reactive T cell response [7]: 33 SFU; Cross-reactive T cell response (subject nine, 11-17yrs): 1 SFU; Cross-reactive T cell response [8]: 8 SFU; Cross-reactive T cell response [9]: 5 SFU; Significant response as a percentage of maximal peptide SFU (subject ten): + (>70% = +); Cross-reactive T cell response [10]: 15 SFU; Cross-reactive T cell response [11]: 9 SFU
QPFPQPEQPFPLQ	5	16	′′ (21-40% = ′′)	70	′′ (21-40% = ′′)	64	10	4	13	′′′ (41-70% = ′′′)	88	′′′ (41-70% = ′′′)	29	21	+ (>70% = +)	83	+ (>70% = +)	94	′′ (21-40% = ′′)	18	Significant response as a percentage of maximal peptide SFU (subject D, 11-17yrs): ′′′ (41-70% = ′′′); Significant response as a percentage of maximal peptide SFU (subject G, 11-17yrs): ′′′ (41-70% = ′′′); Significant response as a percentage of maximal peptide SFU (subject I): + (>70% = +); Significant response as a percentage of maximal peptide SFU (subject V): ′′′ (41-70% = ′′′); Cross-reactive T cell response [4]: 22 SFU; Cross-reactive T cell response [5]: 8 SFU; Cross-reactive T cell response [6]: 9 SFU; Significant response as a percentage of maximal peptide SFU (subject five): + (>70% = +); Cross-reactive T cell response [7]: 45 SFU; Cross-reactive T cell response (subject nine, 11-17yrs): 0 SFU; Cross-reactive T cell response [8]: 6 SFU; Significant response as a percentage of maximal peptide SFU (subject six): + (>70% = +); Cross-reactive T cell response [9]: 12 SFU; Significant response as a percentage of maximal peptide SFU (subject ten): + (>70% = +); Cross-reactive T cell response [10]: 13 SFU; Significant response as a percentage of maximal peptide SFU (subject two): + (>70% = +); Cross-reactive T cell response [11]: 65 SFU
QPFPQPEQPFPQS	4	15	′′ (21-40% = ′′)	46	′ (11-20% = ′)	35	5	4	2	′′ (21-40% = ′′)	57	′′ (21-40% = ′′)	18	13	′′′ (41-70% = ′′′)	55	+ (>70% = +)	70	′′ (21-40% = ′′)	27	Significant response as a percentage of maximal peptide SFU (subject D, 11-17yrs): ′′′ (41-70% = ′′′); Significant response as a percentage of maximal peptide SFU (subject V): + (>70% = +); Cross-reactive T cell response [4]: 25 SFU; Cross-reactive T cell response [5]: 6 SFU; Cross-reactive T cell response [6]: 4 SFU; Significant response as a percentage of maximal peptide SFU (subject five): ′′′ (41-70% = ′′′); Cross-reactive T cell response [7]: 32 SFU; Cross-reactive T cell response (subject nine, 11-17yrs): 1 SFU; Significant response as a percentage of maximal peptide SFU (subject seven): ′′′ (41-70% = ′′′); Cross-reactive T cell response [8]: 11 SFU; Cross-reactive T cell response [9]: 7 SFU; Significant response as a percentage of maximal peptide SFU (subject ten): + (>70% = +); Cross-reactive T cell response [10]: 12 SFU; Significant response as a percentage of maximal peptide SFU (subject two): ′′′ (41-70% = ′′′); Cross-reactive T cell response [11]: 44 SFU
